Bridge positions count the residues as written; N and C are the ends. Peptide text beside a SMILES is read from it.
How the values were obtained:
[1] = target: T1, Potassium voltage-gated channel subfamily A member 3 (Homo sapiens, UniProt P22001); format: cell-based, CHO-K1
[2] = target: T1, Potassium voltage-gated channel subfamily A member 3; parameters: species or system Blood
[3] = target: T1, Potassium voltage-gated channel subfamily A member 3; test: cell-based; parameters: species or system Blood

T1 sequence (P22001 whole entry): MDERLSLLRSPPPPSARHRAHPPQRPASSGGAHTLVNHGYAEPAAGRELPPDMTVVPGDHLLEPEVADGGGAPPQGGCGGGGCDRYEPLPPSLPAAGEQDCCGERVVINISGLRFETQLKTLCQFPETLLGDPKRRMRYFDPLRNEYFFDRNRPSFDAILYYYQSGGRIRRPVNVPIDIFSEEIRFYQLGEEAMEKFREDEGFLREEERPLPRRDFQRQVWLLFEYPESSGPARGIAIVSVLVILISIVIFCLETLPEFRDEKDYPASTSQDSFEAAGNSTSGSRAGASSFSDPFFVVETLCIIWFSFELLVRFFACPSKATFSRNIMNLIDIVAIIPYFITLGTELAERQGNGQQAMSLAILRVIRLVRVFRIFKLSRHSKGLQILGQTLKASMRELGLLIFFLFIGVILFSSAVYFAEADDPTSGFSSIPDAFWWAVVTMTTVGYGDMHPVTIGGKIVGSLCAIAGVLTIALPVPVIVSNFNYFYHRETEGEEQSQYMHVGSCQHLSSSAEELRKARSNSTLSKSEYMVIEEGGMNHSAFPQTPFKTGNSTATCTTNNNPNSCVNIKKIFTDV

IC50 [1] | IC50 [2] | IC50 [3] | Structure (SMILES)
> 3.33 nM | > 92 nM | > 92 nM | CC[C@H](C)[C@@H]1NC(=O)[C@@H](NC(=O)[C@H](CO)NC(=O)[C@@H](N)CCCNC(=N)N)CSSC[C@@H](C(=O)O)NC(=O)[C@H]([C@@H](C)O)NC(=O)CNC(=O)[C@@H]2CSSC[C@@H]3NC(=O)[C@H](CCC(N)=O)NC(=O)[C@H](Cc4ccccc4)NC(=O)[C@H](C)NC(=O)[C@H]([C@@H](C)O)NC(=O)[C@H](CSSC[C@H](NC(=O)[C@H](Cc4ccccc4)NC(=O)[C@H](CO)NC(=O)[C@H](CC(C)C)NC(=O)[C@H](CCCNC(=N)N)NC(=O)[C@H](Cc4ccc(O)cc4)NC(=O)[C@H](CCCCN)NC(=O)[C@H](CCSC)NC(=O)[C@H](CCC(=O)O)NC(=O)[C@H](Cc4cnc[nH]4)NC(=O)[C@H](CCCCN)NC3=O)C(=O)N[C@@H](CCCNC(=N)N)C(=O)N[C@@H](CCCCN)C(=O)N[C@@H]([C@@H](C)O)C(=O)N2)NC(=O)[C@H](CCCNC(=N)N)NC(=O)[C@H](CO)NC(=O)[C@H](CCCCN)NC(=O)[C@@H]2CCCN2C(=O)[C@H]([C@@H](C)CC)NC(=O)[C@H]([C@@H](C)O)NC(=O)[C@H](CC(=O)O)NC1=O
0.985 nM | 11.8 nM | 3.49 nM | CC[C@H](C)[C@@H]1NC(=O)[C@@H](NC(=O)[C@H](CO)NC(=O)[C@@H](N)CCCNC(=N)N)CSSC[C@@H](C(=O)O)NC(=O)[C@H]([C@@H](C)O)NC(=O)CNC(=O)[C@@H]2CSSC[C@@H]3NC(=O)[C@H](CCC(N)=O)NC(=O)[C@H](Cc4ccccc4)NC(=O)[C@H](C)NC(=O)[C@H]([C@@H](C)O)NC(=O)[C@H](CSSC[C@H](NC(=O)[C@H](CCCCN)NC(=O)[C@H](CO)NC(=O)[C@H](CC(C)C)NC(=O)[C@H](CCCNC(=N)N)NC(=O)[C@H](Cc4ccc(O)cc4)NC(=O)[C@H](CCCCN)NC(=O)[C@H](CCSC)NC(=O)[C@H](CO)NC(=O)[C@H](Cc4cnc[nH]4)NC(=O)[C@H](CCCCN)NC3=O)C(=O)N[C@@H](CCCNC(=N)N)C(=O)N[C@@H](CCCCN)C(=O)N[C@@H]([C@@H](C)O)C(=O)N2)NC(=O)[C@H](CCCNC(=N)N)NC(=O)[C@H](CO)NC(=O)[C@H](CCCCN)NC(=O)[C@@H]2CCCN2C(=O)[C@H]([C@@H](C)CC)NC(=O)[C@H]([C@@H](C)O)NC(=O)[C@H](CC(=O)O)NC1=O
0.267 nM | 0.575 nM | 0.312 nM | CC[C@H](C)[C@@H]1NC(=O)[C@@H](NC(=O)[C@H](CO)NC(=O)[C@@H](N)CCCNC(=N)N)CSSC[C@@H](C(=O)O)NC(=O)[C@H]([C@@H](C)O)NC(=O)CNC(=O)[C@@H]2CSSC[C@@H]3NC(=O)[C@H](CCC(N)=O)NC(=O)[C@H](CCC(=O)O)NC(=O)[C@H](C)NC(=O)[C@H]([C@@H](C)O)NC(=O)[C@H](CSSC[C@H](NC(=O)[C@H](Cc4ccccc4)NC(=O)[C@H](CO)NC(=O)[C@H](CC(C)C)NC(=O)[C@H](CCCNC(=N)N)NC(=O)[C@H](Cc4ccc(O)cc4)NC(=O)[C@H](CCCCN)NC(=O)[C@H](CCSC)NC(=O)[C@H](CO)NC(=O)[C@H](C)NC(=O)[C@H](CCCCN)NC3=O)C(=O)N[C@@H](CCCNC(=N)N)C(=O)N[C@@H](CCCCN)C(=O)N[C@@H]([C@@H](C)O)C(=O)N2)NC(=O)[C@H](CCCNC(=N)N)NC(=O)[C@H](CO)NC(=O)[C@H](CCCCN)NC(=O)[C@@H]2CCCN2C(=O)[C@H]([C@@H](C)CC)NC(=O)[C@H]([C@@H](C)O)NC(=O)[C@H](CC(=O)O)NC1=O (H-RSCIDTIPKSRCTAEQCKASMKYRLSFCRKTCGTC-OH; disulfide 3-35, 12-28, 17-32)
0.983 nM | 4.54 nM | 1.32 nM | CC[C@H](C)[C@@H]1NC(=O)[C@@H](NC(=O)[C@H](CO)NC(=O)[C@@H](N)CCCNC(=N)N)CSSC[C@@H](C(=O)O)NC(=O)[C@H]([C@@H](C)O)NC(=O)CNC(=O)[C@@H]2CSSC[C@@H]3NC(=O)[C@H](CCC(N)=O)NC(=O)[C@H](Cc4ccccc4)NC(=O)[C@H](C)NC(=O)[C@H]([C@@H](C)O)NC(=O)[C@H](CSSC[C@H](NC(=O)[C@H](Cc4ccccc4)NC(=O)[C@H](CO)NC(=O)[C@H](CC(C)C)NC(=O)[C@H](CCCNC(=N)N)NC(=O)[C@H](Cc4ccc(O)cc4)NC(=O)[C@H](CCCCN)NC(=O)[C@H](CCSC)NC(=O)[C@H](CO)NC(=O)[C@H](Cc4cnc[nH]4)NC(=O)[C@H](CCCCN)NC3=O)C(=O)N[C@@H](CCCNC(=N)N)C(=O)N[C@@H](CCCCN)C(=O)N[C@@H]([C@@H](C)O)C(=O)N2)NC(=O)[C@H](CCC(=O)O)NC(=O)[C@H](CO)NC(=O)[C@H](CCCCN)NC(=O)[C@@H]2CCCN2C(=O)[C@H]([C@@H](C)CC)NC(=O)[C@H]([C@@H](C)O)NC(=O)[C@H](CC(=O)O)NC1=O
> 3.33 nM | 8.08 nM | 4.72 nM | CC[C@H](C)[C@@H]1NC(=O)[C@@H](NC(=O)[C@H](CO)NC(=O)[C@@H](N)CCCNC(=N)N)CSSC[C@@H](C(=O)O)NC(=O)[C@H]([C@@H](C)O)NC(=O)CNC(=O)[C@@H]2CSSC[C@@H]3NC(=O)[C@H](CCC(N)=O)NC(=O)[C@H](Cc4ccccc4)NC(=O)[C@H](C)NC(=O)[C@H]([C@@H](C)O)NC(=O)[C@H](CSSC[C@H](NC(=O)[C@H](Cc4ccccc4)NC(=O)[C@H](CO)NC(=O)[C@H](CC(C)C)NC(=O)[C@H](CCCNC(=N)N)NC(=O)[C@H](Cc4ccc(O)cc4)NC(=O)[C@H](CCCCN)NC(=O)[C@H](CCSC)NC(=O)[C@H](CO)NC(=O)[C@H](Cc4cnc[nH]4)NC(=O)[C@H](CCCCN)NC3=O)C(=O)N[C@@H](Cc3cccc4ccccc34)C(=O)N[C@@H](CCCCN)C(=O)N[C@@H]([C@@H](C)O)C(=O)N2)NC(=O)[C@H](CCCNC(=N)N)NC(=O)[C@H](CO)NC(=O)[C@H](CCCCN)NC(=O)[C@@H]2CCCN2C(=O)[C@H]([C@@H](C)CC)NC(=O)[C@H]([C@@H](C)O)NC(=O)[C@H](CC(=O)O)NC1=O

Structure (SMILES) | IC50 [1] | IC50 [2] | IC50 [3]
CC[C@H](C)[C@@H]1NC(=O)[C@@H](NC(=O)[C@H](Cc2cccc3ccccc23)NC(=O)[C@@H](N)CCCNC(=N)N)CSSC[C@@H](C(=O)O)NC(=O)[C@H]([C@@H](C)O)NC(=O)CNC(=O)[C@@H]2CSSC[C@@H]3NC(=O)[C@H](CCC(N)=O)NC(=O)[C@H](Cc4ccccc4)NC(=O)[C@H](C)NC(=O)[C@H]([C@@H](C)O)NC(=O)[C@H](CSSC[C@H](NC(=O)[C@H](Cc4ccccc4)NC(=O)[C@H](CO)NC(=O)[C@H](CC(C)C)NC(=O)[C@H](CCCNC(=N)N)NC(=O)[C@H](Cc4ccc(O)cc4)NC(=O)[C@H](CCCCN)NC(=O)[C@H](CCSC)NC(=O)[C@H](CO)NC(=O)[C@H](Cc4cnc[nH]4)NC(=O)[C@H](CCCCN)NC3=O)C(=O)N[C@@H](CCCNC(=N)N)C(=O)N[C@@H](CCCCN)C(=O)N[C@@H]([C@@H](C)O)C(=O)N2)NC(=O)[C@H](CCCNC(=N)N)NC(=O)[C@H](CO)NC(=O)[C@H](CCCCN)NC(=O)[C@@H]2CCCN2C(=O)[C@H]([C@@H](C)CC)NC(=O)[C@H]([C@@H](C)O)NC(=O)[C@H](CC(=O)O)NC1=O | 0.257 nM | 0.258 nM | 0.223 nM

From ChEMBL document CHEMBL3608278 (J Med Chem, 2015)
